The results in this text go back to patent publication US12630563B2, “Macrocyclic RIP2-kinase inhibitors” (Oncodesign S.A., priority 2020, dated 2026).

The structures appear in SMILES notation.

Data set [1] in a line: Human Clint, microsomal metabolic stability (Assay B). The note with it: pooled liver microsomes 0.5 mg/mL, 0.5 μM compound, NADPH. Format: in vitro ADME. The method, then:
Human Clint protocol: Pooled liver microsomes (Sekisui Xenotech) were diluted at 0.5 mg/mL in 50 mM phosphate buffer, pH 7.4 then pre-incubated with 0.5 μM […] for 7 min at 37° C. The reactions were initiated by adding prewarmed cofactor (0.44 mM NADPH). Aliquots of samples were taken at 0, 5, 10, 20 and 45 min and the reactions stopped by addition of cold acetonitrile containing an internal standard. Samples were centrifuged at 3000 g for 10 min at 4° C. and then supernatants were analyzed by LC/MS/MS for the amount of parent compound remaining.
(In general: Liver microsomes are vesicles of endoplasmic reticulum, rich in cytochrome P450 enzymes.)

A further data set has as its target T1, hERG potassium channel (Homo sapiens, UniProt Q12809).
T1 construct: host or cells: HEK (hERG-HEK stably transfected cell line)
Put plainly: hERG q-patch assay (Assay C, Sophion Qube automated electrophysiology). Format: cell-based. The note with it: read-out: Assay C: hERG q-patch inhibition IC50. The method, then: hERG q-patch assay protocol: The potential for test compound to inhibit the hERG potassium channel was determined using the Charles River ChanTest® hERG-HEK stably transfected cell line on the Sophion Qube automated electrophysiology platform. The assay was performed at room temperature and recordings of the hERG tail current from a population of cells were made using multi-hole QChips.
(Block of hERG is tested as a sign of cardiac risk.)

Data set [2] deals with T2, recombinant hRIPK2 protein (kinase domain aa 1-299-His-tagged) (Homo sapiens, UniProt O43353).
T2 construct: kinase domain aa 1-299-His-tagged; purchased Life Technologies PR7829A
Put plainly: RIPK2 AlphaLISA assay (displacement of bead-bound CZC-8004 from hRIPK2). Format: binding. Conditions: recombinant hRIPK2 kinase domain 10 nM, 2 h at 23° C. An outline of the steps:
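His-tagged kinase domain (10 nM, as diluted) was mixed with compound (0.8% DMSO), acceptor beads bearing the probe CZC-8004 and Ni2+ donor beads. After 2 h at 23 °C, AlphaLISA signal was read. Loss of signal reflects displacement of the probe from RIPK2.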

The nature of data set [3]: Human protein binding free fraction (Assay A, RED plate equilibrium dialysis). Format: in vitro ADME. Conditions: plasma, read-out: Assay A: Human protein binding free fraction (F %). The protocol: Human protein binding protocol: Compound was added to plasma or brain homogenate and incubated at 2 μM at 37° C. in the RED plate (Thermo n° 96009, cut-off 8000 Da) against PBS buffer. After 4 h, aliquots of plasma and buffer side were transferred to a well containing acetonitrile with an internal standard. After protein precipitation, samples were centrifuged and supernatant was injected in LC/MS/MS. Standards were prepared in the same matrix and treated as samples.
A fraction unbound (fuplasma) was determined for each plasma sample as follows: […]
On the technique in general: In equilibrium dialysis free small molecules cross a membrane that holds back macromolecules.

T1 sequence (Q12809 whole entry): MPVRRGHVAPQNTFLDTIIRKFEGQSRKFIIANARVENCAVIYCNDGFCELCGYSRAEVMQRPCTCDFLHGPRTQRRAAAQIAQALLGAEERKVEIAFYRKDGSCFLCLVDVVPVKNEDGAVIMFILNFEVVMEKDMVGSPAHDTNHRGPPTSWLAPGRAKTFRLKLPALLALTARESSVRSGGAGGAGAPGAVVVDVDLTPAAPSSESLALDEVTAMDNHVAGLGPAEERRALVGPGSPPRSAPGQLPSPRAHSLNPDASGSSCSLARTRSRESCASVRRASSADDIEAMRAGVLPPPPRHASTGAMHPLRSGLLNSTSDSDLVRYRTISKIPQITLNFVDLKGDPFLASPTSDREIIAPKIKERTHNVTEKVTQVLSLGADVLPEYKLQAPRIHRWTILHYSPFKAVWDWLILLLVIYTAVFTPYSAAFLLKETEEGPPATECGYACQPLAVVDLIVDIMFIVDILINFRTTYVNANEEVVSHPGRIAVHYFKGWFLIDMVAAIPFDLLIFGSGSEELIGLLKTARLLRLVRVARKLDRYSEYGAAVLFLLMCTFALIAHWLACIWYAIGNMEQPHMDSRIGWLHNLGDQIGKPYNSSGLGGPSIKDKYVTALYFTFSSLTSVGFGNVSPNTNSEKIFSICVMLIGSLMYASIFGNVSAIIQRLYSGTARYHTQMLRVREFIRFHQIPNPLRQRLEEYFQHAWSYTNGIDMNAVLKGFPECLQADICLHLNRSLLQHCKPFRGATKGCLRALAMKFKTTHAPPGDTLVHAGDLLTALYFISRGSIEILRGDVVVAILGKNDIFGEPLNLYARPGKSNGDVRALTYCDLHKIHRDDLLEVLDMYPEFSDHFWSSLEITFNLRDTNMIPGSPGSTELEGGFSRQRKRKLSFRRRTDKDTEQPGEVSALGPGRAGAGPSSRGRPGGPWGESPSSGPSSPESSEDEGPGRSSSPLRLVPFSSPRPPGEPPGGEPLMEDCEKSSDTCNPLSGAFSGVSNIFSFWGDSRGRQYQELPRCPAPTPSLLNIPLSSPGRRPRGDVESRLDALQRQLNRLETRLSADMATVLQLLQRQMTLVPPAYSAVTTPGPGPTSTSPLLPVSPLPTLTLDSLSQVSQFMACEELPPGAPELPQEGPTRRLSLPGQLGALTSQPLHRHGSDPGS
T2 sequence (O43353 1-299): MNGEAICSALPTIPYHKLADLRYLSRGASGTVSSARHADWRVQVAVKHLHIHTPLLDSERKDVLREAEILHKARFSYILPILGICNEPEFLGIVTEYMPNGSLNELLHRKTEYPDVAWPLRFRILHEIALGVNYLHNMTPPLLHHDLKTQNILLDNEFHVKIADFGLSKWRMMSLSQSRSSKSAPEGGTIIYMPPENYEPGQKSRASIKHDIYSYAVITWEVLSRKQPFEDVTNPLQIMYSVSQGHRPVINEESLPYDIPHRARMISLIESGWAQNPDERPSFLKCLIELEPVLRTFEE

A word on the IC50: it is the concentration needed to halve the response being measured. Regarding `COc1cn2ncc3c2nc1OC[C@@H]1C[C@@H](OC)C(=O)N1CCNc1cc(F)cc-3c1` [Example 1, (12R,14S)-4-fluoro-12,18-dimethoxy-16-oxa-7,10,20,21,24-pentaazapentacyclo[15.5.2.1^2,6.0^1°,^14.0^2°,^23]pentacosa-1(23),2(25),3,5,17(24),18,21-heptaen-11-one], in data set [1], the “Assay B: Human Clint (hCl)” value is “+++ (+++ indicates hCl equal or below 5 ug/min/mg prot)”. Further, the IC50 is greater than 10 µM on hERG potassium channel and less than 10 nM in data set [2].
For the compound `CO[C@@H]1C[C@H]2COc3ccn4ncc(c4n3)-c3cc(F)cc(c3)NCCN2C1=O` [Example 3, (12R,14S)-4-fluoro-12-methoxy-16-oxa-7,10,20,21,24-pentaazapentacyclo[15.5.2.1^2,6.0^10,^14.0^20,^23] pentacosa-1(23),2(25),3,5,17(24),18,21-heptaen-11-one], the “Assay B: Human Clint (hCl)” value in data set [1] is listed as “++ (++ indicates hCl between 6-18 ug/min/mg prot)”. For the same compound, the IC50 is greater than 10 µM at hERG potassium channel and less than 10 nM in data set [2]. The fraction unbound at 4 h, 2 μM in data set [3] was greater than 0.01.
In the case of `CO[C@@H]1C[C@H]2COc3ccn4ncc(c4n3)-c3cc(cc(C(C)=O)c3)NCCN2C1=O` [Example 54, (12R,14S)-4-acetyl-12-methoxy-16-oxa-7,10,20,21,24-pentaazapentacyclo[15.5.2.1^2,6.0^1°,^14.0^2°,^23]pentacosa-1(23),2,4,6(25),17(24),18,21-heptaen-11-one], the “Assay B: Human Clint (hCl)” value in data set [1] was “++ (++ indicates hCl between 6-18 ug/min/mg prot)”. Moreover, the values for the 50% inhibitory concentration (IC50) (at hERG potassium channel; in data set [2]) were greater than 10 µM and less than 10 nM, respectively. Further, the fraction unbound at 4 h, 2 μM in data set [3] is greater than 0.01.
Turning to `CO[C@@H]1C[C@H]2COc3ccn4ncc(c4n3)-c3cc(cc(C(=O)N(C)OC)c3)NCCN2C1=O` [Example 55, (12R,14S)—N,12-dimethoxy-N-methyl-11-oxo-16-oxa-7,10,20,21,24-pentaazapentacyclo[15.5.2.1^2,6.0^1°,^14.0^2°,^23]pentacosa-1(23),2,4,6(25),17(24),18,21-heptaene-4-carboxamide], the “Assay B: Human Clint (hCl)” value in data set [1] is “+++ (+++ indicates hCl equal or below 5 ug/min/mg prot)”. Also, the concentration for half-maximal inhibition (IC50) is greater than 10 µM on hERG potassium channel and less than 10 nM in data set [2].
For `CO[C@@H]1C[C@H]2COc3nc4c(cnn4cc3-c3cnn(C)c3)-c3cc(F)cc(c3)NCCN2C1=O` [Example 67, (12R,14S)-4-fluoro-12-methoxy-18-(1-methyl-1H-pyrazol-4-yl)-16-oxa-7,10,20,21,24-pentaazapentacyclo[15.5.2.1^2,6.0^1°,^14.0^2°,^23]pentacosa-1(23),2(25),3,5,17(24), 18,21-heptaen-11-one], in that order: “+++ (+++ indicates hCl equal or below 5 ug/min/mg prot)”, greater than 10 µM and less than 10 nM.
With `O=C1[C@H](OCCO)C[C@H]2COc3ccn4ncc(c4n3)-c3cc(F)cc(c3)NCCN12` [Example 79, (12R,14S)-4-fluoro-12-(2-hydroxyethoxy)-16-oxa-7,10,20,21,24-pentaazapentacyclo[15.5.2.1^2,6.0^1°,^14.0^2°,^23]pentacosa-1(23),2(25),3,5,17(24),18,21-heptaen-11-one], the “Assay B: Human Clint (hCl)” value in data set [1] is given as “+++ (+++ indicates hCl equal or below 5 ug/min/mg prot)”. Besides, the IC50 on hERG potassium channel was 1 to 10 µM; in data set [2], less than 10 nM. The fraction unbound at 4 h, 2 μM in data set [3] is greater than 0.01.
Regarding `[2H]C([2H])([2H])Oc1cc2cc(c1)-c1cnn3cc(OC)c(nc13)OC[C@@H]1C[C@@H](OCCOC)C(=O)N1CCN2` [Example 141, (12R,14S)-4-(^2H3)methoxy-18-methoxy-12-(2-methoxyethoxy)-16-oxa-7,10,20,21,24-pentaazapentacyclo[15.5.2.1^2,6.0^10,^14.0^20,^23]pentacosa-1(23),2,4,6(25),17(24),18,21-heptaen-11-one], the IC50 in data set [2] was less than 10 nM.
Same read-out and setting: in the case of `COc1cc2cc(c1)-c1cnn3ccc(nc13)OC[C@@H]1C[C@@H](OC)C(=O)N1C(C)CN2` (stereo partly drawn) [Example 142, (12R,14S)-4,12-dimethoxy-9-methyl-16-oxa-7,10,20,21,24-pentaazapentacyclo[15.5.2.1^2,6.0^1°,^14.0^2°,^23]pentacosa-1(23),2(25),3,5,17(24),18,21-heptaen-11-one] it was 10 to 100 nM.
On the same count and under the same terms, in the case of `COc1cc2cc(c1)-c1cnn3cc(OC)c(nc13)OC[C@@H]1C[C@@H](O)C(=O)N1CCN2` [Example 143, (12R,14S)-12-hydroxy-4,18-dimethoxy-16-oxa-7,10,20,21,24-pentaazapentacyclo[15.5.2. 1^2,6.0^10,^14.0^20,^23]pentacosa-1(23),2(25),3,5,17(24),18,21-heptaen-11-one] it was less than 10 nM; in that of `COCCO[C@@H]1C[C@H]2COc3nc4c(cnn4cc3OCC3COC3)-c3cc(cc(OC)c3)NCCN2C1=O` [Example 144], less than 10 nM.
As to `COCCO[C@@H]1C[C@H]2COc3nc4c(cnn4cc3OC)-c3cc(C#N)cc(c3)NCCN2C1=O` [Example 145, (12R,14S)-18-methoxy-12-(2-methoxyethoxy)-11-oxo-16-oxa-7,10,20,21,24-pentaazapentacyclo[15.5.2.1^2,6.0^10,^14.0^20,^23]pentacosa-1(23),2,4,6(25),17(24),18,21-heptaene-4-carbonitrile], the IC50 in data set [2] is less than 10 nM.
The same measure, in the same setting: in the case of `C#Cc1cc2cc(c1)-c1cnn3cc(OC)c(nc13)OC[C@@H]1C[C@@H](OCCOC)C(=O)N1CCN2` [Example 146, (12R,14S)-4-ethynyl-18-methoxy-12-(2-methoxyethoxy)-16-oxa-7,10,20,21,24-pentaazapentacyclo[15.5.2.1^2,6.0^1°,^14.0^2°,^23]pentacosa-1(23),2,4,6(25),17(24),18,21-heptaen-11-one] it was less than 10 nM; in that of `COc1cc2cc(c1)-c1cnn3cc(OC)c(nc13)OC[C@@H]1C[C@@H](OC(C)C)C(=O)N1CCN2` [Example 147, (12R,14S)-4,18-dimethoxy-12-(propan-2-yloxy)-16-oxa-7,10,20,21,24-pentaazapentacyclo[15.5.2. 1^2,6.0^10,^14.0^20,^23]pentacosa-1(23),2,4,6(25),17(24),18, 21-heptaen-11-one], less than 10 nM.
